# Read-outs that look alike come from different tables or passages of the source.
# Tests used:
# CB1-Receptor = CB1-Receptor (Homo sapiens, UniProt P21554); assay: CB1 receptor binding, radioligand [3H]-SR141716A (Table Ia)
# male NMRI mice [1] = assay: Mouse tetrad model, agonistic effect; format: in vivo; parameters: key to Agonistic effect D: Sedation: % of sedation = mean score (0–3 scale) / 3 × 100; Agonistic effect A: Hot-Plate test / Agonistic effect B: Hypothermia / Agonistic effect C: Catalepsy: unit not given here; conditions: 5 mg/kg i.v.
# Excerpt: (§1) Substances with affinity for cannabinoid receptors are known to produce a wide range of pharmacological effects. It is also known that intravenous administration of a substance with affinity for cannabinoid receptors in mice produces analgesia, hypothermia, sedation and catalepsy. Individually, none of these effects can be considered as proof that a tested substance has affinity for cannabinoid-receptors, since all of these effects are common for various classes of centrally active agents. However, substances, which show all of these effects, i.e. substances that are active in this so-called tetrad model are considered to have affinity for the cannabinoid receptors.
# (§2) The tetrad model is described, for example, in the publication of A. C. Howlett et al, International Union of Pharmacology XXVII. Classification of Cannabinoid Receptors, Pharmacol Rev 54, 161-202, 2002 and David R. Compton et al., “In-vivo Characterization of a Specific Cannabinoid Receptor Antagonist (SR141716A):Inhibition of Tetrahydrocannbinol-induced Responses and Apparent Agonist Activity”, J. Pharmacol. Exp. Ther. 277, 2, 586-594, 1996. The corresponding parts of the description are hereby incorporated by reference.
# (§3) Male NMRI mice with a weight of 20-30 g (Harlan, Barcelona, Spain) are used in all of the following experiments.
# (§4) Before testing in the behavioral procedures given below, mice are acclimatized to the experimental setting. Pre-Treatment control values are determined for analgesia hot plate latency (in seconds), rectal temperature, sedation and catalepsy.
# In order to determine the agonistic activity of the substance to be tested, the mice are injected intravenously with the substance to be tested or the vehicle alone. 15 minutes after injection, latency in hot plate analgesia is measured. Rectal temperature, sedation and catalepsy are measured 20 minutes after injection.
# (§5) The hot plate analgesia is determined according to the method described in Woolfe D. et al. “The evaluation of analgesic action of pethidine hydrochloride (Demerol)”, J. Pharmacol. Exp. Ther. 80, 300-307, 1944. The respective description is hereby incorporated by reference and forms part of the present disclosure.
# (§6) The mice are placed on a hot plate (Harvard Analgesimeter) at 55±0.5° C. until they show a painful sensation by licking their paws or jumping and the time for these sensations to occur is recorded. This reading is considered the basal value (B). The maximum time limit the mice are allowed to remain on the hot plate in absence of any painful response is 40 seconds in order to prevent skin damage. This period is called the cut-off time (PC).
# (§7) Fifteen minutes after the administration of the substance to be tested, the mice are again placed on the hot plate and the afore described procedure is repeated. This period is called the post-treatment reading (PT).
# (§8) The degree of analgesia is calculated from the formula:
# (§9) % MPE of Analgesia=(PT−B)/(PC−B)×100
# (§10) Sedation and ataxia is determined according to the method described in Desmet L. K. C. et al. “Anticonvulsive properties of Cinarizine and Flunarizine in Rats and Mice”, Arzneim.-Forsch. (Frug Res) 25, 9, 1975. The respective description is hereby incorporated by reference and forms part of the present disclosure.
# (§11) The chosen scoring system is
# (§12) 0: no ataxia; 1: doubtful; 2: obvious calmness and quiet; 3 pronounced ataxia; prior to as well as after treatment.
# (§13) The percentage of sedation is determined according to the formula:
# (§14) % of sedation=arithmetic mean/3×100
# (§15) Hypothermia is determined according to the method described in David R. Compton et al. “In-vivo Characterization of a Specific Cannabinoid Receptor Antagonist (SR141716A) Inhibition of Tetrahydrocannbinol-induced Responses and Apparent Agonist Activity”, J. Pharmacol Exp Ther. 277, 2, 586-594, 1996. The respective description is hereby incorporated by reference and forms part of the present disclosure. […]
# [2] = target: T1, transfected human CB2 receptor (Homo sapiens, UniProt P34972); assay: In-vitro affinity to CB2 receptor, radioligand [3H]-CP55940; format: binding
# T1 construct: purchased Receptor Biology, Inc
# Procedure: (§16) The in-vitro determination of the affinity of the inventive substituted pyrazoline compounds to CB1/CB2-Rezeptors is carried out as described in the publication of Ruth A. Ross, Heather C. Brockie et al., “Agonist-inverse agonist characterization at CB1 and CB2 cannabinoid receptors of L-759633, L759656 and AM630”, British Journal of Pharmacology, 126, 665-672, (1999), whereby the transfected human CB1 and CB2 receptors of Receptor Biology, Inc. are used. The radioligand used for both receptors is [^3H]-CP55940. The respective parts of the description is hereby incorporated by reference and forms part of the present disclosure.
# (§17) The affinity of the inventive substituted pyrazoline compounds to CB1/CB2 receptors was determined as described above.
# male NMRI mice [3] = assay: Mouse tetrad model, antagonistic effect against Win 55212-2; format: in vivo; parameters: unit not given here; conditions: 5 mg/kg i.v. prior to Win 55212-2 1.25 mg/kg i.v.
# Excerpt: as §1, §2, §3, §4
# In order to determine the antagonistic activity the identical procedure is used as for the determination of the agonistic effects, but with the difference that the substance to be evaluated for its antagonistic activity is injected 5 minutes before the intravenous injection of 1.25 mg/kg Win-55,212 a known cannabinoid-receptor agonist.
# as §5, §6, §7, §8, §9, §10, §11, §12, §13, §14, §15
# rats = assay: In-vivo testing for antiobesic activity; parameters: species or system rat
# Procedure: The in-vivo testing for antiobesic activity of the inventive pyrazoline compounds is carried out as described in the publication of G. Colombo et al., “Appetite Suppression and Weight Loss after the Cannabinoid Antagonist SR 141716”; Life Sciences, 63 (8), 113-117, (1998). The respective part of the description is hereby incorporated by reference and forms part of the present disclosure.
# The in-vivo testing for antiobesic activity was carried out as described above, whereby four different groups of 10 rats each were treated as follows:
# The second group of rats was treated with the inventive compound N-piperidinyl-5-(4-chlorophenyl)-1-(2,4-dichlorophenyl)-4,5-dihydropyrazole-3-carboxamide according to Example 1. Said compound was administered intraperitoneally to the rats over a period of 14 days in a daily dosis of (10 mg/kg body weight).
# [4] = target: T2, transfected human CB1 receptor (Homo sapiens, UniProt P21554); assay: In-vitro affinity to CB1 receptor, radioligand [3H]-CP55940; format: binding
# T2 construct: purchased Receptor Biology, Inc
# Procedure: as §16, §17
# [5] = In-vivo antidepressant activity, water despair test
# Procedure: The in-vivo testing for antidepressant activity of the inventive pyrazoline compounds in the water despair test is carried out as described in the publication of E. T. Tzavara et al., “The CB1 receptor antagonist SR141716A selectively increases monoaminergic neurotransmission in the medial prefrontal cortex: implications for therapeutic actons”; Br. J. Pharmacol. 2003, 138(4):544:53. The respective part of the description is hereby incorporated by reference and forms part of the present disclosure.
# The in-vivo testing for antidepressant activity of the inventive pyrazoline compounds in the water despair test was carried out as described above.
# [6] = read-out: CB1-Receptor Radioligand: [3H]-SR141716A % Inhibition 10^-7 M
# Chain of CB1-Receptor (P21554 whole entry): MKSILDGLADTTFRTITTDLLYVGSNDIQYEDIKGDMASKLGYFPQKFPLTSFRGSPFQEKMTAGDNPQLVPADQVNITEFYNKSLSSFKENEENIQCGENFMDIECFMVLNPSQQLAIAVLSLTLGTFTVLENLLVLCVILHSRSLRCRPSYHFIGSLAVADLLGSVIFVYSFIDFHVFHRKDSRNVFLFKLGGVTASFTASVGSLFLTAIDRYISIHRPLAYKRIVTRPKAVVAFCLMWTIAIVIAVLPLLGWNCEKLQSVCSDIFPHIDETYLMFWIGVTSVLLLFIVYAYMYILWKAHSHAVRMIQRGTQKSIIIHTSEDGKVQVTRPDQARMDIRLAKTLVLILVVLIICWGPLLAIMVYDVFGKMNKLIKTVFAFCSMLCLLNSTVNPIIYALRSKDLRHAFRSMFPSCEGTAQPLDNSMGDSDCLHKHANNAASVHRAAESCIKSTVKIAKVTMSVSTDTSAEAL
# T1 sequence (P34972 whole entry): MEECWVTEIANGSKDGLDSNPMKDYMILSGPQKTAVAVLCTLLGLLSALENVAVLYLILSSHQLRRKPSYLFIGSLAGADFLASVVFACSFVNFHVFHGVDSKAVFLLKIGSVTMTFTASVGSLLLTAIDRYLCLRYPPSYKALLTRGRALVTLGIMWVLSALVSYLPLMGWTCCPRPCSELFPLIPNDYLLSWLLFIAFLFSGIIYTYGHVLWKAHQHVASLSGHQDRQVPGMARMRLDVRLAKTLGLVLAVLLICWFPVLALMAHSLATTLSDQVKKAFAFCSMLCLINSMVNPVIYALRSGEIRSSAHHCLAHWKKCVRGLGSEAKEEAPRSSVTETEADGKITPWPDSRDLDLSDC
# T2 sequence (P21554 whole entry): as the sequence (P21554 whole entry) above
compound,measurement,setting,value
CN1CCN(NC(=O)C2=NN(c3ccc(Cl)cc3Cl)C(c3ccc(Cl)cc3)C2)CC1.Cl (stereo not drawn),melting point,,150 to 155 °C
O=C(NN1CCCCC1)C1=NN(c2ccc(Cl)cc2Cl)[C@@H](c2ccc(Cl)cc2)C1,inhibition at 0.1 µM,CB1-Receptor; [6],83.3%
"O=C(NN1CCCCC1)C1=NN(c2ccc(Cl)cc2Cl)C(c2ccc(Cl)cc2)C1 (stereo not drawn) [Example 1, N-piperidinyl-5-(4-chlorophenyl)-1-(2,4-dichlorophenyl)-4,5-dihydro-1H-pyrazole-3-carboxamide]",Agonistic effect A: Hot-Plate test,male NMRI mice [1],0
same,Agonistic effect B: Hypothermia,male NMRI mice [1],0
same,Agonistic effect C: Catalepsy,male NMRI mice [1],0
same,Agonistic effect D: Sedation,male NMRI mice [1],0
same,Ki,[2],> 1000 nM
same,Antagonistic Effect A: Hot-Plate test,male NMRI mice [3],74
same,Antagonistic Effect B: Hypothermia,male NMRI mice [3],100
same,Antagonistic Effect C: Catalepsy,male NMRI mice [3],100
same,Antagonistic Effect D: Sedation,male NMRI mice [3],100
same,body weight,rats; 10 mg/kg daily intraperitoneally over 14 days (FIG. 1),lowered
same,food intake,rats; 10 mg/kg daily intraperitoneally over 14 days (FIG. 2),reduction
same,body weight effect after the treatment is ended,rats; after end of 14 days of 10 mg/kg daily i.p. (FIG. 1),also observed after the treatment is ended
same,Ki,[4],< 25 nM
same,immobility time and struggling time,[5],positive effects
O=C(NN1CCCCC1)C1=NC(c2ccc(Cl)cc2Cl)[C@@H](c2ccc(Cl)cc2)C1 (stereo partly drawn),inhibition at 0.1 µM,"CB1-Receptor; 10^-7 M, [3H]-SR141716A, read-out: CB1-Receptor Radioligand: [3H]-SR141716A % Inhibition 10^-7 M",82.7%
"O=C(C1=NN(c2ccc(Cl)cc2Cl)C(c2ccc(Cl)cc2)C1)N1CCCCC1 (stereo not drawn) [Example 5, [5-(4-Chloro-phenyl)-1-(2,4-dichloro-phenyl)-4,5-dihydro-1H-pyrazol-3-yl]-piperidin-1-yl-methanone]",Agonistic effect A: Hot-Plate test,male NMRI mice [1],0
same,Agonistic effect B: Hypothermia,male NMRI mice [1],50
same,Agonistic effect C: Catalepsy,male NMRI mice [1],0
same,Agonistic effect D: Sedation,male NMRI mice [1],0
same,Antagonistic Effect A: Hot-Plate test,male NMRI mice [3],50
same,Antagonistic Effect B: Hypothermia,male NMRI mice [3],40
same,Antagonistic Effect C: Catalepsy,male NMRI mice [3],20
same,Antagonistic Effect D: Sedation,male NMRI mice [3],20
same,melting point,,105 to 110 °C
O=C(NN1CCCCC1)C1=NN(c2ccc(Cl)cc2Cl)C(c2ccc(Cl)cc2)C1 (stereo not drawn) [drawing 82],inhibition at 0.1 µM,"CB1-Receptor; read-out: CB1-Receptor Radioligand: [3H]-SR141716A % Inhibition 10^-7 M, 10^-7 M, [3H]-SR141716A",82.6%
O=C(NN1CCCCC1)C1=NN(c2ccc(Cl)cc2Cl)C(c2ccc(Cl)cc2)C1 (stereo not drawn) [drawing 84],inhibition at 0.1 µM,CB1-Receptor; [6],99.7%
O=C(Nn1cnnc1)C1=NN(c2ccc(Cl)cc2Cl)C(c2ccc(Cl)cc2)C1 (stereo not drawn),melting point,,134 to 138 °C
O=C(NN1CCCCC1)C1=NN(c2ccc(Cl)cc2Cl)C(c2ccc(Cl)cc2)C1.O=[N+]([O-])O (stereo not drawn),CB1-Receptor Radioligand: [3H]-SR141716A % Inhibition 10^-7 M,"CB1-Receptor; 10^-7 M, [3H]-SR141716A",83.6%

# Source: patent US20090149472A1, “SALTS OF SUBSTITUTTED PYRAZOLINE COMPOUNDS, THEIR PREPARATION AND USE AND MEDICAMENTS” (Laboratorios Del Dr. Esteve, S.A., priority 2005, published 2009)
